# Data: patent US12576052B2, “Metformin inhalation powder aerosol for treating idiopathic pulmonary fibrosis and preparation method thereof” (Wenzhou Medical University, priority 2022, dated 2026)
# What was measured:
# IPF patients = settings: after 52 weeks of treatment; cited from earlier work
# [1] = NOAEL of mice and conversion into human equivalent dose (HED)
# Description: (§1) According to the experimental results and the conversion rules of equivalent dose between different species (as shown in table 3), the no observable adverse effect level (NOAEL) of mice is converted into the human equivalent dose HED.
# (§2) Among them, NOAEL: no observable adverse effect level dose obtained through animal preclinical toxicology research; HED: human equivalent dose.
# α-SMA = α-SMA immunofluorescence of lung tissue in bleomycin-induced pulmonary fibrosis mice; assay type: in vivo, C57BL6 mice; settings: BLM+Met vs BLM group; inhalation powder aerosol of Embodiment 2, 5 mg per mouse every day for 3 weeks; FIG. 7
# Description: Among them, BLM: bleomycin-induced pulmonary fibrosis mouse model group; BLM+Met: the effect of atomization inhalation of metformin on macroscopic damage of lung in mice with pulmonary fibrosis.
# Dosage of inhaled metformin: the reference value of local administration concentration of metformin in upper respiratory tract is 200 mg/kg. […]
# α-SMA immunofluorescence: lung tissue slides are dried at 65° C., dewaxed with xylene and dehydrated with gradient alcohol. […] The slides are sealed and the fluorescence intensity is observed under a fluorescence microscope.
# Statistical analysis: the experimental data of each group are statistically analyzed by GraphpadPrism9.0 software. All the experimental data are tested for normality, and the measurement data are expressed as mean±standard deviation. […]
# [2] = mouse, in vivo
# Description: as §1, §2
# [3] = test system: mice with pulmonary fibrosis; assay: Bleomycin-induced pulmonary fibrosis mouse model: body weight, macroscopic lung damage, HE and Masson staining; assay type: in vivo, C57BL6 mice; settings: inhalation powder aerosol of Embodiment 2, 5 mg per mouse every day for 3 weeks
# Description: Establishment of pulmonary fibrosis model: C57BL6 mice aged 6-8 weeks are selected and adapted for one week. Bleomycin (3 mg/kg/50 μl) is given orally to mice in BLM group and BLM+Met group on the first day, and the dry powder of bleomycin is prepared to the required concentration with sterile phosphate buffer saline non-surgical method of bleomycin orally injected into mice's lungs: mice are anesthetized with isoflurane and hung on the operating board at 70°. Bleomycin is dripped orally using a 200 μl pipette).
# Dosage of inhaled metformin: the reference value of local administration concentration of metformin in upper respiratory tract is 200 mg/kg. According to the weight of 25 g per mouse, each mouse inhales 5 mg of metformin inhalation powder aerosol in Embodiment 2 every day for 3 weeks.
# Weighing: weights of the mice are weighed at a fixed time every morning and recorded, and the changes of mice's weight are observed at different times in each group.
# Hematoxylin Eosin (HE) staining and Masson staining: the lung tissue of mice is fixed in 4% paraformaldehyde for 24 hours, washed overnight with running water, dehydrated by conventional alcohol, embedded in paraffin, cut into 5-micron slides, stained with HE and Masson, and sealed with neutral gum after applying xylene for transparency. The pathological changes of lung are observed under optical microscope and photos are taken.
# Statistical analysis: the experimental data of each group are statistically analyzed by GraphpadPrism9.0 software. All the experimental data are tested for normality, and the measurement data are expressed as mean±standard deviation. The mean of multiple groups of samples is compared by One-way Analysis of Variance (one-way ANOVA). P<0.05 is statistically significant. The results are shown in FIG. 5A, FIG. 5B, FIG. 6 and FIG. 7.
Structure (SMILES),disease progression of IPF patients (IPF patients),"NOAEL at 3 weeks ([1]; C57BL6, mouse, in vivo, inhaled or intranasal, 200 mg/kg) [mg/kg]",HED (human equivalent dose) ([1]; NOAEL of mice/12.3) [mg/kg],expression of α-SMA (immunofluorescence) (α-SMA),maximum recommended initial inhalation dose for the first human study [2] [mg],"alveolar structure (Masson and HE staining) ([3]; BLM+Met group, FIG. 6)","inflammatory cells in alveolar cavity and alveolar septum ([3]; BLM+Met group, FIG. 6)","body weight of mice with pulmonary fibrosis ([3]; BLM+Met vs BLM group, FIG. 5A)","macroscopic damage of lung ([3]; BLM+Met vs BLM group, FIG. 5B)","collagen fibers (Masson and HE staining) ([3]; BLM+Met vs BLM group, FIG. 6)","degree of fibrosis (Masson and HE staining) ([3]; BLM+Met vs BLM group, FIG. 6)"
Cc1ccc(=O)n(-c2ccccc2)c1 [pirfenidone],effectively slow down the disease progression,–,–,–,–,–,–,–,–,–,–
"CN(C)C(=N)N=C(N)N [Metformin, metformin]",–,200,16.3,decreased significantly,97.8,complete,no obvious inflammatory cells,decreased,"pink, with smooth surface and elastic touch",significantly reduced,significantly improved
